Experimental data as given in doi:10.1101/2023.12.19.572336, “Structure of an insect gustatory receptor” (bioRxiv, 2023).

Molecular target: T1, Bombyx mori Gr9 (BmGr9) (Bombyx mori, UniProt B3GTD7)
T1 construct: N-terminally TwinStrep-tagged BmGr9, homotetramer; residues 232–269 and the N and C termini (15 and 5 residues) disordered
T1 sequence (B3GTD7 1-449): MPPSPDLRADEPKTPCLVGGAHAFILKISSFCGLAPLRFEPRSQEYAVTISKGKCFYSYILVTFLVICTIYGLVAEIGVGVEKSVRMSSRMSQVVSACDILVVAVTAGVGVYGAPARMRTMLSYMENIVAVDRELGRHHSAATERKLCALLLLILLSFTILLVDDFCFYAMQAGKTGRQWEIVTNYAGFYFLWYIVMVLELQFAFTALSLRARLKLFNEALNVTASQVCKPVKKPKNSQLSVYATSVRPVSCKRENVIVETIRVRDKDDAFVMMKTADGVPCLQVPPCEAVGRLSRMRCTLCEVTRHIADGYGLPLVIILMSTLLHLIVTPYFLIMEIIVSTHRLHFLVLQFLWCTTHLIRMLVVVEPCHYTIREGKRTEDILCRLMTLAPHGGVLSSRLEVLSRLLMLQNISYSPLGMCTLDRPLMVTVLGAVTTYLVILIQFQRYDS
Assay: cryo-EM of protein purified with […] D-fructose ([…] Å); EC50 by two-electrode voltage clamp in Xenopus oocytes
Assay type: cell-based

- EC50: 22 mM
Structure (SMILES): OCC1(O)OC[C@@H](O)[C@@H](O)[C@@H]1O (stereo partly drawn) [D-fructose]
